Assay results published in patent publication US7345037B2, “Nitrosated and nitrosylated compounds and compositions and their use for treating respiratory disorders” (Nitromed, Inc., priority 1996, dated 2008).

Legend:
[1] = test system: acute bronchoconstriction and late bronchial obstruction after inhalation challenge with Ascaris Suum; assay: Ascaris suum-induced immediate and late bronchial response (mean lung resistance sR1) in allergic conscious sheep; format: in vivo; conditions: for protection of the immediate response / protection of the peak late response: 500 μg aerosolized 30 minutes prior to ascaris suum challenge, referenced to historical controls, n=3
Source text: (§1) The measurement of biological activity in a pulmonary model of allergic asthma and lung inflammation was undertaken in adult conscious sheep. The methodology was essentially as described by W. M. Abraham et al. (Bull. Eur. Physiopathol. Respir., 22, 387 (1986)). Adult sheep with a natural cutaneous reaction to Ascaris Suum extract and who respond to inhalation challenge with Ascaris Suum with both an acute bronchoconstriction and a late bronchial obstruction were used in the study.
Unsedated sheep were intubated and measurement of airway mechanics were computed and recorded on a digital computer utilizing inputs of transpulmonary pressure and tracheal airflow recordings. Each animal was exposed to an aerosol of ascaris suum, diluted to produce an immediate and significant increase in mean lung resistance (sR1) of approximately 600-700% above baseline. […] This second response is known as the late response. sR1 returned to baseline by 24 hours. Each animal was exposed to an aerosol of ascaris suum at a minimum of two week interval. […]
(§2) Each test drug was aerosolized to an animal 30 minutes prior to challenge with ascaris suum.

[2] = test system: airway responsiveness to aerosolized carbachol after exposure to ascaris suum; assay: Airway responsiveness to aerosolized carbachol (PC150) before and after Ascaris suum challenge in allergic conscious sheep; format: in vivo; conditions: 500 μg aerosolized, PC150 of carbachol 24 hours prior to and 24 post ascaris suum exposure, closer to unity is better
Source text: as §1
Airway responsiveness was measured by calculation of a PC150 value. The PC150 is the dose of aerosolized carbachol which produces a 150% increase in sR1 above baseline. The doses of carbachol were administered in an ascending dose-response fashion with each dose being administered for a 10 breath duration. The PC150 value was determined for each animal 24 hours prior to exposure to ascaris suum and again 24 post exposure. The difference in PC150 values represented a change in airway responsiveness. The closer the post challenge to prechallenge ratio to unity the better the effect of the particular compound.
as §2

Compound | protection of the immediate response [1] | protection of the peak late response [1] | protection against lung function changes due to aerosol challenge of ascaris suum ([1]; overall comparison with the parent steroid) | post challenge/prechallenge ratio of PC150 values (airway hyperresponsiveness) [2]
6α-Fluoro-11β-hydroxy-16α,17-((1-methylethylidene)bis(oxy))pregna-1,4-diene-3,20-dione-21-(3-methyl-3-nitrosothio)-butanoate [Example 1] | 59±14% | 89±2% | better protection | 1.18±0.06
CC1(C)O[C@@H]2C[C@H]3[C@@H]4C[C@H](F)C5=CC(=O)C=C[C@]5(C)[C@H]4[C@@H](O)C[C@]3(C)[C@]2(C(=O)CO)O1 [6α-Fluoro-11β, 21-dihydroxy-16α, 17α-((1-methylethylidene)bis(oxy))pregna-1,4-diene-3,20-dione, reference compound] | 16±21% | 83±7% |  | 0.98±0.10
